Where two headings read alike, the source gives them in different places.
Key:
Format in all cases: in vivo
[1] = system: Alopecurus myosuroides (ALOMY); assay: Glasshouse assay for herbicidal activity (pre- and post-emergence), percentage phytotoxicity; conditions: Alopecurus myosuroides, Rate 250 g/ha, 100%=total damage, 0%=no damage
In short: (§1)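 Herbicide was applied to potted plants sown in standard soil, one day after sowing for PRE and after about 12 days for POST. Visual percentage damage ratings followed at 15 DAA (POST) and 20 DAA (PRE).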

Avena fatua (AVEFA) = assay: as above; conditions: Avena fatua, Rate 250 g/ha, 100%=total damage, 0%=no damage
In short: as §1

[2] = system: Echinochloa crus-galli (ECHCG); assay: as above; conditions: Echinochloa crus-galli, Rate 250 g/ha, 100%=total damage, 0%=no damage
In short: as §1

Lolium perenne (LOLPE) = assay: as above; conditions: Lolium perenne, Rate 250 g/ha, 100%=total damage, 0%=no damage
In short: as §1

[3] = system: Winter Wheat variety 'Hereward'; assay: Glasshouse assay for crop safety, post-emergence, +/- safener cloquintocet-mexyl (CQC), percentage phytotoxicity; conditions: 250 g/ha, evaluated after 13 days, 100=total damage, 0=no damage; for Post-emergence Crop Selectivity, percentage phytotoxicity, Wheat +CQC: with safener cloquintocet-mexyl (CQC) seed treatment 0.5 g/kg seed; for Post-emergence Crop Selectivity, percentage phytotoxicity, Wheat − CQC: without safener cloquintocet-mexyl (CQC)
From the text: Test—Glasshouse Assay for Crop Safety.
Seeds of the Winter Wheat variety ‘Hereward’ were seed treated with a wettable powder formulation of the cereal herbicide safener, cloquintocet mexyl, at a rate of 0.5 grams per kilogram of dry seed prior to the initiation of glasshouse testing. Three seeds were sown per 1.5 inch plastic pot into a sandy loam soil at a depth of 1 cm, 8 days prior to application of the test compounds and was watered and grown under controlled conditions in a glasshouse (at 24/16° C., day/night; 14 hours light; 65% humidity). The plants were sprayed Post-emergence with an aqueous spray solution derived from the formulation of the technical active ingredient in acetone/water (50:50) solution containing 0.5% Tween 20 (polyoxyethelyene sorbitan monolaurate, CAS RN 9005-64-5).
The test plants were then grown in a glasshouse under controlled conditions (at 24/16° C., day/night; 14 hours light; 65% humidity) and watered twice daily. After 13 days for pre and post-emergence, the test was evaluated (100=total damage to plant; 0=no damage to plant).

[4] = post-emergence, 360 h, post-emergence, assessed visually 15 DAA, read-out: Post-emergence herbicidal activity (percentage phytotoxicity) ALOMY POST
[5] = pre-emergence, 480 h, pre-emergence, assessed visually 20 DAA, read-out: Pre-emergence herbicidal activity (percentage phytotoxicity) ALOMY PRE
[6] = post-emergence, 360 h, post-emergence, assessed visually 15 DAA, read-out: Post-emergence herbicidal activity (percentage phytotoxicity) AVEFA POST
[7] = pre-emergence, 480 h, pre-emergence, assessed visually 20 DAA, read-out: Pre-emergence herbicidal activity (percentage phytotoxicity) AVEFA PRE
[8] = post-emergence, 360 h, post-emergence, assessed visually 15 DAA, read-out: Post-emergence herbicidal activity (percentage phytotoxicity) ECHCG POST
[9] = pre-emergence, 480 h, pre-emergence, assessed visually 20 DAA, read-out: Pre-emergence herbicidal activity (percentage phytotoxicity) ECHCG PRE
[10] = post-emergence, 360 h, post-emergence, assessed visually 15 DAA, read-out: Post-emergence herbicidal activity (percentage phytotoxicity) LOLPE POST
[11] = pre-emergence, 480 h, pre-emergence, assessed visually 20 DAA, read-out: Pre-emergence herbicidal activity (percentage phytotoxicity) LOLPE PRE

SMILES | pest or weed control at 250 g/ha [1, 4] [%] | pest or weed control at 250 g/ha [1, 5] [%] | pest or weed control at 250 g/ha (Avena fatua (AVEFA); [6]) [%] | pest or weed control at 250 g/ha (Avena fatua (AVEFA); [7]) [%] | pest or weed control at 250 g/ha [2, 8] [%] | pest or weed control at 250 g/ha [2, 9] [%] | pest or weed control at 250 g/ha (Lolium perenne (LOLPE); [10]) [%] | pest or weed control at 250 g/ha (Lolium perenne (LOLPE); [11]) [%] | Post-emergence Crop Selectivity, percentage phytotoxicity, Wheat +CQC [3] [%] | Post-emergence Crop Selectivity, percentage phytotoxicity, Wheat − CQC [3] [%]
Cc1cc(C)c(C2C(=O)CC(CC(=O)NC(C)C)C2=O)c(C)c1 (stereo not drawn) [Compound A7] | 90 | 80 | 90 | 60 | 100 | 90 | 100 | 100 | 20 | 30
Cc1cc(-c2ccc(Cl)cn2)cc(C)c1C1C(=O)CC(CC(=O)NCc2cccc(C(F)(F)F)c2)C1=O (stereo not drawn) [Compound A146] | 100 | 80 | 100 | 90 | 100 | 90 | 100 | 90 | 50 | 80
Cc1cc(-c2cncnc2)cc(C)c1C1C(=O)CC(CC(=O)NCc2cccc(Cl)c2)C1=O (stereo not drawn) [Compound A142] |  | 0 |  | 0 | 60 | 30 | 20 | 20 | 50 | 70
COCC(C)NC(=O)CC1CC(=O)C(c2c(C)cc(C)cc2C)C1=O (stereo not drawn) [Compound A16] | 90 | 90 | 90 | 90 | 100 | 100 | 80 | 80 | 30 | 80
CC#Cc1cc(C)c(C2C(=O)CC(CC(=O)NCC(=O)C(C)(C)C)C2=O)c(C)c1 (stereo not drawn) [Compound A59] | 90 | 100 | 90 | 70 | 90 | 90 | 70 | 70 | 50 | 80
CCCCNC(=O)CC1CC(=O)C(c2c(C)cc(C)cc2C)C1=O (stereo not drawn) [Compound A12] | 100 | 90 | 80 | 70 | 80 | 100 | 90 | 100 | 0 | 70
Cc1cc(-c2ncc(F)cc2F)cc(C)c1C1C(=O)CC(CC(=O)NC(C)(C)C)C1=O (stereo not drawn) [Compound A85] | 100 | 100 | 100 | 80 | 100 | 90 | 90 | 100 | 10 | 80
Cc1cc(C)c(C2C(=O)CC(CC(=O)NCc3cccs3)C2=O)c(C)c1 (stereo not drawn) [Compound A6] | 90 | 90 | 90 | 60 | 90 | 100 | 90 | 100 | 10 | 70
CCCN(C)C(=O)CC1CC(=O)C(c2c(C)cc(C)cc2C)C1=O (stereo not drawn) [Compound A25] | 70 | 70 | 70 | 70 | 90 | 80 | 90 | 90 | 0 | 40
Cc1cc(C)c(C2C(=O)CC(CC(=O)NC3CC3)C2=O)c(C)c1 (stereo not drawn) [Compound A15] | 80 | 80 | 80 | 50 | 100 | 100 | 100 | 100 | 20 | 20
CCNC(=O)CC1CC(=O)C(c2c(C)cc(C)cc2C)C1=O (stereo not drawn) [Compound A20] | 80 | 70 | 80 | 70 | 100 | 100 | 100 | 100 | 20 | 40
Cc1cc(C)c(C2C(=O)CC(CC(=O)NC(C)(C)C)C2=O)c(C)c1 (stereo not drawn) [Compound A2, N-tert-butyl-2-[2,4-dioxo-3-(2,4,6-trimethylphenyl)cyclopentyl]-acetamide] | 80 | 80 | 70 | 10 | 50 | 70 | 80 | 80 | 10 | 10
Cc1cc(-c2ncc(Cl)cc2F)cc(C)c1C1C(=O)CC(CC(=O)NC(C)(C)C)C1=O (stereo not drawn) [Compound A39, N-tert-butyl-2-[3-[4-(5-chloro-3-fluoro-2-pyridyl)-2,6-dimethyl-phenyl]-2,4-dioxo-cyclopentyl]acetamide] | 100 | 100 | 100 | 100 | 100 | 100 | 100 | 100 | 50 | 80
Cc1cc(-c2ncc(F)cn2)cc(C)c1C1C(=O)CC(CC(=O)NCc2cccc(Cl)c2)C1=O (stereo not drawn) [Compound A138] | 90 | 90 | 100 | 100 | 100 | 100 | 100 | 100 | 40 | 70
